Literature values in patent US20220143126A1, “SYNERGISTIC COMBINATION OF PHYTOACTIVES” (priority 2019, published 2022).

Conditions: rats, concomitant administration of curcumin with piperine

For COc1cc(/C=C/C(=O)CC(=O)/C=C/c2ccc(O)c(OC)c2)ccc1O [curcumin], the increase in bioavailability is given as 150%.
